Data from PubChem BioAssay AID179 (DTP/NCI, 2004).
pEC50, pIC50: −log10 of the molar value. Activity calls are given as the source filed them.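 The calls were made as follows: active = compounds giving half or more protection of infected cells from virus-caused growth loss, again on retest; inactive = the rest.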

Test system: CEM cells HIV-1 protection, formazan growth assay
Assay: NCI AIDS Antiviral Assay
Conditions: for pIC50: measured here: growth of uninfected CEM cells
In short: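 CEM (human) cells, HIV-1 infected vs uninfected, 5-point dosing, formazan growth read-out. Retest threshold 50% protection.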

Row | Structure (SMILES) | pEC50 | pIC50 | outcome
1 | CC/C(Cl)=N\OC(=O)Nc1ccccc1OC(F)(F)F | < 4.70 | 5.50 | –
2 | COc1c(O)c2c(=O)cc(OC)c3c4c(OC)cc(=O)c5c(O)c(OC)c6c(c(c1C(C(C)=O)C6C(C)O)c23)c54 (stereo not given) | < 4.70 | 6.50 | –
3 | COc1cc(C2c3cc4c(cc3OC(N3CCCC3)C2C)OCO4)cc(OC)c1O (stereo not given) | < 3.70 | 5.22 | –
4 | CCNC(=S)NCCc1c[nH]c2ccccc12 | < 3.70 | 3.73 | –
5 | CC(=O)NC1C(OC(C)C(=O)NC(C(=O)NC(CCC(=O)NCCCNC2c3ccccc3Nc3cccc([N+](=O)[O-])c32)C(N)=O)C(C)C)C(O)C(CO)OC1(C)OCc1ccccc1 (stereo not given) | < 5.00 | 5.76 | –
6 | COC1=CC(=O)c2nc(COC(C)=O)ccc2C1=O | – | – | inactive
7 | CCOC(=O)c1c(C(=O)OC)nc2n1-c1ccccc1OC2 | < 3.08 | 4.19 | –
8 | Cc1cc(S(=O)(=O)Nc2nc(N)nc(N3CCCCC3)n2)c(S)cc1Cl | < 3.70 | < 3.70 | –
9 | COc1ccc(NC(=S)Nc2cccc(C)n2)cc1 | < 3.70 | < 3.70 | –
10 | CCOC(=O)Cc1nc2c(N)ncnc2n1C1OC(COC(C)=O)C(OC(C)=O)C1OC(C)=O (stereo not given) | < 3.70 | < 3.70 | –
11 | COc1ccc(NC/C=C/C(=C/COC(C)=O)OC(C)=O)cc1 | < 3.70 | 5.50 | –
12 | O=S(=O)(O)CC(S(=O)(=O)O)S(=O)(=O)O | < 3.70 | < 3.70 | –
13 | O=C1CC2(CCC(O)(c3ccc4ccccc4c3)C(C(=O)c3ccc4ccccc4c3)C2)C(=O)c2ccccc2N1 (stereo not given) | < 3.70 | 4.08 | –
14 | COc1ccc(OP2OCC(C)O2)cc1 (stereo not given) | < 2.96 | 4.33 | –
15 | O1[SiH]2[SiH]3O[SiH]3[SiH]3O[SiH]3[SiH]12 (stereo not given) | – | – | inactive
16 | c1ccc(C2=Nc3ccccc3N=C3CCCC32)cc1 (stereo not given) | < 3.70 | < 3.70 | –
17 | C=CC(C1=CC(=O)C(OC)=CC1=O)c1ccccc1 (stereo not given) | – | – | inactive
18 | O=c1oc2ccccc2c(O)c1C(c1cnc2ccccc2c1)c1c(O)c2ccccc2oc1=O | – | – | inactive
19 | CN(C)c1ccc(/C=C/C(=O)O)cc1 | < 2.94 | < 2.94 | –
20 | CN1CCCN2CCN(C)CCCN(CC1)CC2 | < 3.01 | < 3.01 | –
21 | O=C(C(O)c1cn(Cc2ccccc2)c2ccccc12)N1CCCCC1 (stereo not given) | – | – | inactive
22 | CSc1nc(NC2OC(COC(C)=O)C(OC(C)=O)C(OC(C)=O)C2OC(C)=O)c(N=C(C)C(C)=O)c(=O)n1C (stereo not given) | – | – | inactive
23 | COc1ccccc1C1(c2c(OC(C)C)c(=O)c2=O)SCCCS1 | < 3.70 | 3.86 | –

Row | Structure (SMILES) | pEC50 | pIC50 | outcome
24 | O=C1CC(Br)C(c2ccccc2)(c2ccccc2)O1 (stereo not given) | < 4.09 | < 4.09 | –
25 | COc1cc(C2C=C(c3ccccc3)Oc3cc4c(cc32)OCO4)cc(OC)c1OC (stereo not given) | < 5.70 | 6.20 | –
26 | O=C(O[C@H]1[C@@H]2C=CO[C@@H](OC3OC(CO)C(O)C(O)C3O)[C@@H]2[C@@]2(CO)O[C@@H]12)c1ccc(O)c(O)c1 (stereo not given in full) | – | – | inactive
27 | Cc1nn(C(=O)c2ccncc2)c2c1C(c1ccc([N+](=O)[O-])cc1)SC(N)=N2 (stereo not given) | < 3.70 | 3.90 | –
28 | CCOC(=O)C(=CNc1ccc(N(C2=NCC(C)S2)c2ccc(F)c(Cl)c2)cc1)C(=O)OCC (stereo not given) | – | – | inactive
29 | COC(=O)/C(C#N)=C/n1ccc(=O)[nH]c1=S | < 3.70 | < 3.70 | –
30 | CC(C)(C)N=c1n(C(C)(C)C)oc(=O)n1-c1ccccc1 | < 4.30 | < 4.30 | –
31 | CN1NC(C2NN(C)C(=O)N(C)N2)NN(C)C1=O | < 3.01 | 4.48 | –
32 | Cc1nnc(N)nc1/C=C\c1ccc(N(C)C)cc1 | < 3.70 | 5.46 | –
33 | Cc1ccc(N=NN(C)C(C)C(O)Cc2ccccc2)cc1 (stereo not given) | < 3.70 | 4.11 | –
34 | CCOC(=O)/C=C1\CCC(C)n2c1nccc2=O (stereo not given) | < 3.70 | 3.96 | –
35 | Cc1ccc(N=c2oc3c(ccc4ccccc43)nc2Nc2ccc(C)cc2)cc1 | < 3.70 | < 3.70 | –
36 | CC(=O)OC1CC2C(C)(C)CCCC2(C)C2C(=O)C(O)=C(C(C)C)C(=O)C12 (stereo not given) | < 3.70 | 5.55 | –
37 | Nn1nc2ccccc2n1 | < 2.73 | < 2.73 | –
38 | O=C(CCC(=O)Nc1ccc(Cl)cc1)CC(=O)c1ccc2ccccc2c1 | < 3.61 | < 3.61 | –
39 | O=C(O)CCCCCCCCCCCO | < 3.70 | < 3.70 | –
40 | Sc1ccccc1N=Cc1cccs1 | < 3.70 | 4.03 | –
41 | CC#CCCCC1(C)CCCNC1=S (stereo not given) | < 3.70 | < 3.70 | –
42 | CC(C)C(=S)N(C)O | < 4.73 | 6.52 | –
43 | N#C/C(=C/c1ccsc1)C(=O)c1ccccc1 | < 3.96 | < 3.96 | –
44 | CC1=NN(C(=O)CC(=O)Nc2ccc(C)cc2)C(=O)C1N=Nc1ccc(S(=O)(=O)c2ccc(N=NC3C(=O)N(C(=O)CC(=O)Nc4ccc(C)cc4)N=C3C)cc2)cc1 (stereo not given) | < 4.30 | < 4.30 | –
45 | C[C@@H](NC(=O)c1ccccc1SC(=O)OCCCCCl)C(N)=O | 5.62 | 3.71 | –
46 | Fc1ccc(F)c(C=NC23CC4CC(CC(C4)C2)C3)c1 | < 3.70 | < 3.70 | –

Row | Structure (SMILES) | pEC50 | pIC50 | outcome
47 | O=C(CC(=O)Nc1ccccc1)NNC(c1cc(N=Nc2ccc(Br)cc2)ccc1O)P(O)O (stereo not given) | < 4.00 | 5.40 | –
48 | O=C(NC(CO)CO)c1ccc2cc(C(=O)N3CC(CCl)c4ccc([N+](=O)[O-])cc43)[nH]c2c1 (stereo not given) | < 3.70 | 4.27 | –
49 | O=C(CCc1ccccc1)On1nnc2ccccc2c1=O | – | – | inactive
50 | O=c1oc2ccccc2c(O)c1Oc1ccccc1 | < 3.70 | 3.71 | –
51 | Nc1n[n+]([O-])c2ccc(Cl)cc2[n+]1[O-] | < 3.70 | 5.45 | –
52 | COC(=O)C1(C)CCCC2(C)C3CC(CO)C(C(C)C)CC3CCC12 (stereo not given) | < 3.70 | < 3.70 | –
53 | CCCC1C[C@H]2CCCCN2[C@H]2CCCN12 (stereo not given in full) | < 2.95 | 3.26 | –
54 | CCNC(=S)NNC(=O)c1csc(NC(=S)NC2CCCCC2)n1 | < 3.70 | 5.18 | –
55 | O=c1ccc2cc3ccc4cccc5ccc(c2o1)c3c45 | – | – | inactive
56 | COc1ccc(N/C=C2\C(=O)CCc3c2oc2cc(Cl)c(O)c(Cl)c32)cc1 | < 3.70 | 4.54 | –
57 | CC12O[C@H](c3ccccc3)[C@H](c3ccccc3)N1C(=O)C1(C(=O)OCc3ccccc3)CC12 (stereo not given in full) | < 4.64 | < 4.64 | –
58 | CC[C@]1(Cc2ccc(OC)c(OC)c2)C=[N+]([O-])O[C@H](OCc2ccccc2)[C@@H]1OC(C)=O | < 3.70 | 4.42 | –
59 | CC1(C)OCN(c2ccc(N3CCOCC3)cc2)Cn2c1nc1ccccc12 | < 3.70 | 4.19 | –
60 | S=C1Cc2c(-c3ccc(Br)cc3)cc(-c3ccccc3)nc2-c2ccccc2N1 | < 3.82 | 5.21 | –
61 | Cc1ccc(S(=O)(=O)n2c3ccc(Br)cc3c3nc4ccccc4nc32)cc1 | < 4.00 | < 4.00 | –
62 | CCOC(=O)/C=C/c1cccc(F)c1 | < 3.70 | < 3.70 | –
63 | C[C@@]12[C@H]3CC[C@@H]1[C@H](O)C(=O)N2CC3 | < 3.70 | < 3.70 | –
64 | COc1c(O)c2c(=O)cc3c4c5c(cc(=O)c6c(O)c(OC)c(CC(C)O)c(c(c1CC(C)O)c24)c65)OCO3 (stereo not given) | < 4.62 | 6.08 | –
65 | Cc1ccccc1NC(=S)N=Nc1c(O)[nH]c2ccccc12 | < 3.70 | < 3.70 | –
66 | CCc1cc(CCC(=O)Nc2ccccc2[N+](=O)[O-])[nH]c(=S)n1 | < 3.12 | < 3.12 | –
67 | CC(=O)OC[C@]12CCC3[C@@]4(C)CCCC(C)(C)C4CC[C@@]3(C)C1CC(C1=CC(=O)OC1O)O2 (stereo not given in full) | < 3.70 | 6.12 | –
68 | CN1C(=O)C[N+]([O-])=C(c2ccccc2)c2cc(Cl)ccc21 | < 3.92 | < 3.92 | –
69 | Cc1ccccc1C(C#N)/C(=N/NC(=O)c1cc2ccccc2cc1O)C(=O)Nc1cccc(Cl)c1 (stereo not given) | < 3.72 | 5.31 | –

Row | Structure (SMILES) | pEC50 | pIC50 | outcome
70 | O=[N+]([O-])c1ccc2c(c1)/C(=N/N=C1c3ccccc3Cc3ccccc31)c1cc([N+](=O)[O-])cc([N+](=O)[O-])c1-2 | – | – | inactive
71 | Cc1[nH]c(C)c2ccc(=O)ccc12 | < 3.62 | 3.84 | –
72 | O=C(Nc1ccc(Br)cc1)c1cc(Br)ccc1O | < 3.70 | 5.36 | –
73 | c1ccc(P(CC[As](c2ccccc2)c2ccccc2)CC[As](c2ccccc2)c2ccccc2)cc1 | < 4.68 | 5.67 | –
74 | O=[N+]([O-])c1ccc(C2=Nn3cnnc3SC2)o1 | – | – | inactive
75 | O=c1sc(Nc2ccc3ccccc3c2Cl)nc2ccccc12 | < 3.70 | < 3.70 | –
76 | Cc1nnc2sc(Cl)nn12 | < 3.70 | 5.21 | –
77 | CN(COC(=O)c1ccccc1)c1nc(N(C)COC(=O)c2ccccc2)nc(N(C)COC(=O)c2ccccc2)n1 | – | – | inactive
78 | Cc1ccc(C(C)C)c(OP(=S)(S)Oc2cc(C)ccc2C(C)C)c1 | < 3.70 | 5.38 | –
79 | CCOC(=O)c1cn2c(n1)sc1cccc(C)c12 | < 3.70 | < 3.70 | –
80 | O=c1[nH]c(=O)c2c([nH]1)[nH]c1ccccc12 | < 3.70 | < 3.70 | –
81 | CCCCCCC[CH2][Sn]([CH2]CCCCCCC)([O]c1cccc2cccnc12)[O]c1cccc2cccnc12 | < 4.67 | < 4.67 | –
82 | CC(C)(C)OC(=O)NC(CS(=O)(=O)O)C(=O)O (stereo not given) | < 3.70 | < 3.70 | –
83 | O=C1/C(=C/c2cccc3ccccc23)CCc2ccc([N+](=O)[O-])cc21 | < 3.70 | 4.32 | –
84 | O=C1NC2(C=Cc3c(ccc4ccccc34)O2)Oc2ccccc21 (stereo not given) | < 4.94 | < 4.94 | –
85 | CC1=Nc2ccc(Cl)cc2N=C(C)C1 | < 3.70 | 3.81 | –
86 | CC1(C)N=C(C(N)=O)c2ncn(-c3ccccc3)c2N1 | < 3.70 | < 3.70 | –
87 | Cn1nc2ccccc2cc1=O | < 2.81 | 3.18 | –
88 | COC1/C=C/OC2(C)Oc3c(C)c(O)c4c(O)c(c(C=NN5CCCCCCCCCC5)c(O)c4c3C2=O)NC(=O)/C(C)=C/C=C/C(C)C(O)C(C)C(O)C(C)C(OC(C)=O)C1C (stereo not given) | < 3.70 | 5.21 | –
89 | Nc1nn2cc3c(nc2c1N=Nc1ccc(Cl)cc1)CCCCC3 | < 3.82 | < 3.82 | –
